{
  "source": "patent US12419875B2",
  "about": "“Use of Axitinib and analogs thereof in preparing blood-brain barrier permeability regulator” (ZHEJIANG UNIVERSITY, priority 2018, dated 2025)",
  "key": {"bEnd.3 cells": {"tested_on": "bEnd.3 cells", "assay": "Cell survival rate by tetrazolium blue colorimetry, bEnd.3 cells", "assay_type": "cell-based", "conditions": "10 μM (therapeutic dose), FIGS. 13 and 14", "experimental": "(§1) FIG. 13: Evaluation of cell survival rate in a Transwell model. A Transwell model of co-incubation of brain microvascular endothelial cells bEnd.3 and glioma cells U87 MG simulates a pathological blood-brain barrier. Axitinib (10 μM) and an Axitinib analog of phosphatidylinositol kinase (PI3K) inhibitor LY294002 (10 μM) were added into the Transwell chamber. After 24 hours, the survival rate of bEnd.3 cells in the Transwell chamber (Panel A) and U87 MG cells in the Transwell outer chamber (Panel B) were detected by tetrazolium blue colorimetry (n=3).\n(§2) FIG. 14: Evaluation of Cytotoxicity for Axitinib and an analog thereof. […] Cell survival rate was detected by tetrazolium blue colorimetry. […]\n(§3) The physiological blood-brain barrier and the pathological blood-brain barrier as constructed in Method 1 and Method 2 in the Example 1 were used as models, respectively. […] Absorbance at 570 nm was measured with a microplate reader. The survival rate of cells was calculated according to the following formula: Survival rate of cells (%)=(absorbance value of a test group/absorbance value of a control group)×100%\n(§4) In addition, bEnd.3 cells and U87 MG glioma cells were used as model cells to evaluate the cytotoxicity of Axitinib and an Axitinib analog of phosphatidylinositol kinase (PI3K) inhibitor LY294002 with the tetrazolium blue colorimetric method. […] Absorbance at 570 nm was measured with a microplate reader."}, "U87 MG glioma cells": {"tested_on": "U87 MG glioma cells", "assay": "Cell survival rate by tetrazolium blue colorimetry, U87 MG cells", "assay_type": "cell-based", "conditions": "U87MG cells, 10 μM (therapeutic dose); FIGS. 13 and 14", "experimental": "as §1, §2, §3, §4"}, "[1]": {"tested_on": "pathological blood-brain barrier", "assay": "Evans blue permeation into the brain after treatment, model of Parkinson's disease", "assay_type": "in vivo, C57/BL6 mice", "conditions": "Axitinib 10 mg/kg tail vein 7 days; levodopa 20 mg/kg intraperitoneally 10 days; vs Parkinson's control; FIGS. 26 and 27"}, "[2]": {"tested_on": "model of Parkinson's disease", "assay": "Movement time within 2 minutes, model of Parkinson's disease", "assay_type": "in vivo, C57/BL6 mice", "conditions": "Axitinib 10 mg/kg 7 days; levodopa 20 mg/kg 10 days; vs Parkinson's control; FIG. 28", "experimental": "After the treatment was accomplished, movement time within 2 minutes (walking, lifting of both forelimbs, washing face, hair grooming and the like) was recorded for each of the test groups (n=5).\nAfter the Axitinib treatment and the levodopa treatment was accomplished, movement time within 2 minutes (walking, lifting of both forelimbs, washing face, hair grooming and the like) was recorded for each of the test groups."}, "tyrosine hydroxylase": {"tested_on": "tyrosine hydroxylase", "assay": "Striatum tyrosine hydroxylase immunohistochemistry, model of Parkinson's disease", "conditions": "Axitinib 10 mg/kg 7 days; levodopa 20 mg/kg 10 days; FIG. 29"}},
  "data": [
    {"smiles": "O=c1cc(N2CCOCC2)oc2c(-c3ccccc3)cccc12", "note": "[LY294002]", "values": [
      {"measurement": "Cytotoxicity", "setting": "bEnd.3 cells", "value": "do not produce significant cytotoxicity"},
      {"measurement": "Cytotoxicity", "setting": "U87 MG glioma cells", "value": "do not produce significant cytotoxicity"}
    ]},
    {"smiles": "N[C@@H](Cc1ccc(O)c(O)c1)C(=O)O", "note": "[levodopa]", "values": [
      {"measurement": "Amount of Evans blue permeated into the brain", "setting": "[1]", "value": "reduced to varied degrees"},
      {"measurement": "Dyskinesia (movement time within 2 minutes)", "setting": "[2]", "value": "significantly alleviated"},
      {"measurement": "Expression of striatum tyrosine hydroxylase", "setting": "tyrosine hydroxylase", "value": "significantly up-regulated"}
    ]}
  ]
}
